Test results from ChEMBL document CHEMBL1155520, “Novel 8a-aza-8a-homoerythromycin--4''-(3-substituted-amino)propionates with broad spectrum antibacterial activity” (2010).
Converted amounts (≈) assume the structure as drawn.

Legend:
Format in all cases: functional
Streptococcus pyogenes [1] = assay: Antimicrobial activity against macrolide-sensitive Streptococcus pyogenes 3665
Staphylococcus aureus = assay: Antimicrobial activity against macrolide-sensitive Staphylococcus aureus ATCC 13709
Streptococcus pneumoniae [2] = assay: Antimicrobial activity against macrolide-resistant Streptococcus pneumoniae Ci137
Haemophilus influenzae = assay: Antimicrobial activity against Haemophilus influenzae ATCC 49247
Streptococcus pneumoniae [3] = assay: Antimicrobial activity against inducible macrolide and constitutive lincosamide, streptogramin-resistant Streptococcus pneumoniae 4636
Streptococcus pneumoniae [4] = assay: Antimicrobial activity against macrolide-sensitive Streptococcus pneumoniae SPO 30
Streptococcus pyogenes [5] = assay: Antimicrobial activity against inducible macrolide, lincosamide, streptogramin-resistant Streptococcus pyogenes Finland 11

Compound | MIC (Streptococcus pyogenes [1]) [µg/mL] | MIC (Staphylococcus aureus) [µg/mL] | MIC (Streptococcus pneumoniae [2]) [µg/mL] | MIC (Haemophilus influenzae) [µg/mL] | MIC (Streptococcus pneumoniae [3]) [µg/mL] | MIC (Streptococcus pneumoniae [4]) [µg/mL] | MIC (Streptococcus pyogenes [5]) [µg/mL]
CC[C@H]1OC(=O)[C@H](C)[C@@H](O[C@H]2C[C@@](C)(OC)[C@@H](OC(=O)CCNCC(=O)Nc3ccc([N+](=O)[O-])cc3)[C@H](C)O2)[C@H](C)[C@@H](O[C@@H]2O[C@H](C)C[C@H](N(C)C)[C@H]2O)[C@](C)(O)C[C@@H](C)NC(=O)[C@H](C)[C@@H](O)[C@]1(C)O | < 0.13 | 2 (≈ 2 µM) | 4 (≈ 4.01 µM) | 8 (≈ 8.01 µM) | 32 (≈ 32.1 µM) | < 0.13 | 4 (≈ 4.01 µM)
CC[C@H]1OC(=O)[C@H](C)[C@@H](O[C@H]2C[C@@](C)(OC)[C@@H](OC(=O)CCN3CCN(C(=O)c4ccco4)CC3)[C@H](C)O2)[C@H](C)[C@@H](O[C@@H]2O[C@H](C)C[C@H](N(C)C)[C@H]2O)[C@](C)(O)C[C@@H](C)NC(=O)[C@H](C)[C@@H](O)[C@]1(C)O | < 0.13 | 4 (≈ 4.07 µM) | 2 (≈ 2.03 µM) | 16 (≈ 16.3 µM) | > 64 | < 0.13 | 8 (≈ 8.14 µM)
CC[C@H]1OC(=O)[C@H](C)[C@@H](O[C@H]2C[C@@](C)(OC)[C@@H](OC(=O)CCNCC(=O)Nc3ccc4ccccc4c3)[C@H](C)O2)[C@H](C)[C@@H](O[C@@H]2O[C@H](C)C[C@H](N(C)C)[C@H]2O)[C@](C)(O)C[C@@H](C)NC(=O)[C@H](C)[C@@H](O)[C@]1(C)O | < 0.13 | 4 (≈ 3.99 µM) | 2 (≈ 1.99 µM) | 4 (≈ 3.99 µM) | 32 (≈ 31.9 µM) | < 0.13 | 8 (≈ 7.97 µM)
CC[C@H]1OC(=O)[C@H](C)[C@@H](O[C@H]2C[C@@](C)(OC)[C@@H](OC(=O)CCN[C@@H](C)c3ccc([N+](=O)[O-])cc3)[C@H](C)O2)[C@H](C)[C@@H](O[C@@H]2O[C@H](C)C[C@H](N(C)C)[C@H]2O)[C@](C)(O)C[C@@H](C)NC(=O)[C@H](C)[C@@H](O)[C@]1(C)O | < 0.13 | 4 (≈ 4.13 µM) | 4 (≈ 4.13 µM) | 8 (≈ 8.25 µM) | 16 (≈ 16.5 µM) | < 0.13 | 4 (≈ 4.13 µM)
CC[C@H]1OC(=O)[C@H](C)[C@@H](O[C@H]2C[C@@](C)(OC)[C@@H](OC(=O)CCN[C@H](C)c3ccc([N+](=O)[O-])cc3)[C@H](C)O2)[C@H](C)[C@@H](O[C@@H]2O[C@H](C)C[C@H](N(C)C)[C@H]2O)[C@](C)(O)C[C@@H](C)NC(=O)[C@H](C)[C@@H](O)[C@]1(C)O | < 0.13 | 4 (≈ 4.13 µM) | 4 (≈ 4.13 µM) | 4 (≈ 4.13 µM) | 32 (≈ 33 µM) | < 0.13 | 8 (≈ 8.25 µM)
CC[C@H]1OC(=O)[C@H](C)[C@@H](O[C@H]2C[C@@](C)(OC)[C@@H](OC(=O)CCN[C@@H](C)C(=O)Nc3ccc4ccccc4c3)[C@H](C)O2)[C@H](C)[C@@H](O[C@@H]2O[C@H](C)C[C@H](N(C)C)[C@H]2O)[C@](C)(O)C[C@@H](C)NC(=O)[C@H](C)[C@@H](O)[C@]1(C)O | < 0.13 | 2 (≈ 1.97 µM) | 0.5 (≈ 0.492 µM) | 2 (≈ 1.97 µM) | 32 (≈ 31.5 µM) | < 0.13 | 8 (≈ 7.86 µM)
CC[C@H]1OC(=O)[C@H](C)[C@@H](O[C@H]2C[C@@](C)(OC)[C@@H](OC(=O)CCN[C@@H](C)C(=O)Nc3ccc([N+](=O)[O-])cc3)[C@H](C)O2)[C@H](C)[C@@H](O[C@@H]2O[C@H](C)C[C@H](N(C)C)[C@H]2O)[C@](C)(O)C[C@@H](C)NC(=O)[C@H](C)[C@@H](O)[C@]1(C)O | < 0.13 | 4 (≈ 3.95 µM) | 2 (≈ 1.98 µM) | 4 (≈ 3.95 µM) | 32 (≈ 31.6 µM) | < 0.13 | 4 (≈ 3.95 µM)
CC[C@H]1OC(=O)[C@H](C)[C@@H](O[C@H]2C[C@@](C)(OC)[C@@H](OC(=O)CCN3CCN(C(=O)c4ccco4)CC3)[C@H](C)O2)[C@H](C)[C@@H](O[C@@H]2O[C@H](C)C[C@H](N(C)C)[C@H]2O)[C@](C)(OC)C[C@@H](C)NC(=O)[C@H](C)[C@@H](O)[C@]1(C)O | < 0.13 | 2 (≈ 2.01 µM) | 2 (≈ 2.01 µM) | 4 (≈ 4.01 µM) | 32 (≈ 32.1 µM) | < 0.13 | 16 (≈ 16 µM)
CC[C@H]1OC(=O)[C@H](C)[C@@H](O[C@H]2C[C@@](C)(OC)[C@@H](OC(=O)CCNCC(=O)Nc3ccc4ccccc4c3)[C@H](C)O2)[C@H](C)[C@@H](O[C@@H]2O[C@H](C)C[C@H](N(C)C)[C@H]2O)[C@](C)(OC)C[C@@H](C)NC(=O)[C@H](C)[C@@H](O)[C@]1(C)O | < 0.13 | 1 (≈ 0.983 µM) | 2 (≈ 1.97 µM) | 2 (≈ 1.97 µM) | 16 (≈ 15.7 µM) | < 0.13 | 16 (≈ 15.7 µM)
CC[C@H]1OC(=O)[C@H](C)[C@@H](O[C@H]2C[C@@](C)(OC)[C@@H](OC(=O)CCNCC(=O)Nc3ccc([N+](=O)[O-])cc3)[C@H](C)O2)[C@H](C)[C@@H](O[C@@H]2O[C@H](C)C[C@H](N(C)C)[C@H]2O)[C@](C)(OC)C[C@@H](C)NC(=O)[C@H](C)[C@@H](O)[C@]1(C)O | < 0.13 | 1 (≈ 0.988 µM) | 2 (≈ 1.98 µM) | 2 (≈ 1.98 µM) | 16 (≈ 15.8 µM) | < 0.13 | 4 (≈ 3.95 µM)
CC[C@H]1OC(=O)[C@H](C)[C@@H](O[C@H]2C[C@@](C)(OC)[C@@H](OC(=O)CCN[C@@H](C)c3ccc([N+](=O)[O-])cc3)[C@H](C)O2)[C@H](C)[C@@H](O[C@@H]2O[C@H](C)C[C@H](N(C)C)[C@H]2O)[C@](C)(OC)C[C@@H](C)NC(=O)[C@H](C)[C@@H](O)[C@]1(C)O | < 0.13 | 2 (≈ 2.03 µM) | 2 (≈ 2.03 µM) | 32 (≈ 32.5 µM) | > 32 | < 0.13 | 4 (≈ 4.07 µM)
CC[C@H]1OC(=O)[C@H](C)[C@@H](O[C@H]2C[C@@](C)(OC)[C@@H](OC(=O)CCN[C@H](C)c3ccc([N+](=O)[O-])cc3)[C@H](C)O2)[C@H](C)[C@@H](O[C@@H]2O[C@H](C)C[C@H](N(C)C)[C@H]2O)[C@](C)(OC)C[C@@H](C)NC(=O)[C@H](C)[C@@H](O)[C@]1(C)O | < 0.13 | 1 (≈ 1.02 µM) | 2 (≈ 2.03 µM) | 32 (≈ 32.5 µM) | > 32 | < 0.13 | 4 (≈ 4.07 µM)
CC[C@H]1OC(=O)[C@H](C)[C@@H](O[C@H]2C[C@@](C)(OC)[C@@H](OC(=O)CCN[C@@H](C)C(=O)Nc3ccc([N+](=O)[O-])cc3)[C@H](C)O2)[C@H](C)[C@@H](O[C@@H]2O[C@H](C)C[C@H](N(C)C)[C@H]2O)[C@](C)(OC)C[C@@H](C)NC(=O)[C@H](C)[C@@H](O)[C@]1(C)O | < 0.13 | 0.5 (≈ 0.487 µM) | 0.5 (≈ 0.487 µM) | 2 (≈ 1.95 µM) | 16 (≈ 15.6 µM) | < 0.13 | 1 (≈ 0.974 µM)
CC[C@H]1OC(=O)[C@H](C)[C@@H](O[C@H]2C[C@@](C)(OC)[C@@H](OC(=O)CCNCCNc3cccc4ccccc34)[C@H](C)O2)[C@H](C)[C@@H](O[C@@H]2O[C@H](C)C[C@H](N(C)C)[C@H]2O)[C@](C)(OC)C[C@@H](C)NC(=O)[C@H](C)[C@@H](O)[C@]1(C)O | < 0.13 | 1 (≈ 0.997 µM) | 2 (≈ 1.99 µM) | – | > 32 | < 0.13 | 4 (≈ 3.99 µM)
